In ChEMBL document CHEMBL3585338, “2-Hydroxy-3,4-naphthochalcone (2H-NC) inhibits TNFα-induced tumor invasion through the downregulation of NF-κB-mediated MMP-9 gene expression” (Bioorg Med Chem Lett, 2014):
Activity calls are given as the source filed them.

What was measured:
Assay type in all cases: cell-based
[1] = molecular target: Inhibitor of NF-kappa-B kinase alpha/beta (Homo sapiens) (UniProt O14920+O15111); assay: Inhibition of TNF-alpha-induced IKKalpha/beta phosphorylation at Ser176/180 in human MDA-MB-231 cells after 20 mins by immunoblot analysis
[2] = molecular target: Transcription factor p65 (Homo sapiens) (UniProt Q04206); assay: Inhibition of TNF-alpha-induced Rel-A phosphorylation at Ser536 in human MDA-MB-231 cells after 60 mins by immunoblot analysis
Sequence of Transcription factor p65 (Homo sapiens) (Q04206 whole entry): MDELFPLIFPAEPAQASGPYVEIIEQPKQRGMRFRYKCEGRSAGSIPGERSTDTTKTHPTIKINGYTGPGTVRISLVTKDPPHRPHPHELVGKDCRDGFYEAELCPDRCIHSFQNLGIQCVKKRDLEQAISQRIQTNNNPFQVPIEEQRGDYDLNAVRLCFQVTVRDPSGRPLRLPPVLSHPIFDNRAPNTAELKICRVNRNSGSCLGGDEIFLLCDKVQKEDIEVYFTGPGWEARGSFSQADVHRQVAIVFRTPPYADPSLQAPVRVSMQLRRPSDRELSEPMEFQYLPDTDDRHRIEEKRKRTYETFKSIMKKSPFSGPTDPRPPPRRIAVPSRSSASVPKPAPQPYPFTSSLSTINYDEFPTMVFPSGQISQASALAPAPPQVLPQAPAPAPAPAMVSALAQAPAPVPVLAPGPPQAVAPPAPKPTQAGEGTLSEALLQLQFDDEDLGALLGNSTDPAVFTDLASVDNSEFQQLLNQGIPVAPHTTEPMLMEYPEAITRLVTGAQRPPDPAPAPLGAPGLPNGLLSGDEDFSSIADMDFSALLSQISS

[3] = molecular target: Transcription factor p65 (Homo sapiens) (UniProt Q04206); assay: Inhibition of TNF-alpha-induced Rel-A nuclear translocation in human MDA-MB-231 cells assessed as decrease in Rel-A phoshorylation at Ser536 at 20 uM pretreated for 30 mins prior to TNF-alpha stimulation measured after 60 mins by immunofluorescence microscopic analysis

Measured: inhibition

O=C(/C=C/c1ccccc1)c1ccc2ccccc2c1O
active: [1] Dose-dependent effect | [2] Dose-dependent effect | [3]
